{"source": "paper PMC11487390", "about": "“Design and Synthesis of 1,3-Diarylpyrazoles and Investigation of Their Cytotoxicity and Antiparasitic Profile” (International Journal of Molecular Sciences, 2024)", "key": {"[1]": {"assay": "Cytotoxicity assay, MRC-5SV2 cells, resazurin, 3 days", "format": "cell-based", "settings": "human, MRC-5 cells, highest concentration 64 µM", "experimental": "The series of final products (13–69) was investigated in vitro on the human fetal lung fibroblast cell line MRC-5 (Table 1) to assess cytotoxicity toward normal (i.e., non-malignant) human cells. […] As explained earlier, these are important pathogens for humans or cattle (T. b. brucei) and a persistent need for new therapeutics exists for these parasites. As a part of the antiparasitic tests, cytotoxicity against primary mouse macrophages (PMMs) was also evaluated. These murine cells serve as host cells for parasites in the L. infantum assay. Therefore, the murine macrophage assay not only offers additional cytotoxicological insight but is also essential to interpreting the readout of the L. infantum assay.\n(§1) The MRC-5SV2 human lung fibroblast cell line was cultured in MEM + Earle’s salts-medium, supplemented with 2 mM L-glutamine, 16.5 mM NaHCO3, and 5% inactivated fetal calf serum. For evaluating the antileishmanial activity, the L. infantum MHOM/MA(BE)/67 strain was used. This strain was maintained in a Golden hamster (Mesocricetus auratus). Amastigotes were collected from the spleen of an infected donor hamster using differential centrifugation. Primary peritoneal mouse macrophages were used as host cells and were collected 2 days after peritoneal stimulation with a 2% potato starch suspension. For the intracellular T. cruzi assays, the Tulahuen CL2 strain was used that expresses β-galactosidase. The strain was maintained in MRC-5SV2 cells in MEM medium. The T. b. brucei Squib 427 strain or T. b. rhodesiense STIB-900 strain was used for screening against the extracellular African trypanosomes. The strains were maintained in Hirumi’s Modified Iscove’s medium-9 (HMI-9), supplemented with 10% inactivated fetal calf serum. All cultures and assays were performed at 37 °C with 5% CO2.\n(§2) Compound stock solutions were prepared in 100% DMSO at 20 mM. The compounds were serially pre-diluted by robotic plate production (4-fold) in DMSO followed by a further (intermediate) dilution in demineralized water to assure a final in-test DMSO concentration of <1%. Identical test plates containing 10 µL of the different concentrations of each compound were produced for the different assays. For the cytotoxicity assays, 5 concentrations per compound were tested (64–16–4–1–0.25 µM). For the parasitic assays, 10 concentrations per compound were tested, ranging from 64 µM to 0.2 nM.\nAssays were performed in sterile 96-well microtiter plates, each well containing 10 µL of the watery compound dilutions together with 190 µL of MRC-5SV2 inoculum (1.5 × 10^5 cells/mL). Cell growth was compared to untreated control wells (100% cell growth) and medium-control wells (0% cell growth). After 3 days incubation, MRC-5 viability was assessed fluorimetrically after addition of 50 μL resazurin per well (final concentration of 10 µg mL^−1). After 4 h at 37 °C, fluorescence was measured (λex 550 nm, λem 590 nm). The results were expressed as % reduction in cell growth/viability compared to positive (100% growth–0% inhibition) and negative (0% growth–100% inhibition) control wells from which EC50 values (50% effective concentrations) were derived using an excel macro that calculates the interpolation of the concentrations corresponding to the flanking points, just above and just below 50% inhibition."}, "[2]": {"tested_on": "L. infantum MHOM/MA(BE)/67 strain", "assay": "L. infantum intracellular amastigote assay in PMM (Giemsa, 5 days)", "format": "cell-based, Leishmania infantum", "settings": "Leishmania infantum, 120 h, amastigotes in PMM, 5 days; read-out: L. inf. (EC50)", "experimental": "as §1, §2\nPrimary peritoneal mouse macrophages (PMMs) were prepared in RPMI-1640 medium, supplemented with 2 mM L-glutamine, 16.5 mM NaHCO3, and 5% inactivated fetal calf serum. The macrophages are infected after 48 h with spleen-derived L. infantum amastigotes (3 × 10^4 PMM + 4.5 × 10^5 parasites/well). The compounds were added after 2 h of infection. After 5 days incubation, parasite burdens (mean number of amastigotes/macrophage) were assessed microscopically after staining with a 10% Giemsa solution and EC50 values were calculated."}, "[3]": {"tested_on": "T. b. brucei Squib 427 strain", "assay": "T. b. brucei growth assay (resazurin, 3 days)", "format": "cell-based, Trypanosoma brucei brucei", "settings": "Trypanosoma brucei, 72 h, 3 days; read-out: T. b. bruc. (EC50)", "experimental": "as §1, §2\n(§3) Parasite suspensions (1.5 × 10^4 T. b. brucei/well or 4 × 10^3 T. b. rhodesiense/well) in HMI-9 medium were exposed in a total volume of 200 µL to 10 µL of the compound dilutions Parasite growth was assessed fluorimetrically after 3 days of incubation by the addition of 50 µL resazurin per well. After 6 h (T. b. rhodesiense) or 24 h (T. b. brucei) at 37 °C, fluorescence was measured (λex 550 nm, λem 590 nm), from which viability and EC50 values could be determined."}, "[4]": {"tested_on": "Trypanosoma cruzi Tulahuen CL2 strain", "assay": "Intracellular T. cruzi assay in MRC-5 cells (β-galactosidase/CPRG, 7 days)", "format": "cell-based", "settings": "Trypanosoma cruzi, TULAHUEN, MRC5, 168 h, intracellular in MRC-5 cells", "experimental": "as §1, §2\nMRC-5 cells were infected in 96-well plates using a harvested T. cruzi inoculum (4 × 10^3 MRC-5 cells/well + 4 × 10^4 parasites/well) and exposed to 10 µL of the compound dilutions (200 µL/well total volume). Parasite growth determined after 7 days of incubation and compared to untreated infected controls following the addition of the substrate CPRG (chlorophenolred ß-D-galactopyranoside): 50 µL/well of a stock solution containing 15.2 mg CPRG + 250 µL Nonidet in 100 mL PBS. The absorbance was measured spectrophotometrically at 540 nm after 4 h incubation at 37 °C and EC50 values were calculated."}, "[5]": {"tested_on": "T. b. rhodesiense STIB-900 strain", "assay": "T. b. rhodesiense growth assay (resazurin, 3 days)", "format": "cell-based, Trypanosoma brucei rhodesiense", "settings": "Trypanosoma brucei, RHODESIENSE, 72 h, 3 days; read-out: T. b. rhod. (EC50)", "experimental": "as §1, §2, §3"}, "[6]": {"settings": "MRC-5SV2 human lung fibroblast cells"}}, "note": "Structures can show the parent of a compound that is named as a salt.", "data": [{"compound": "c1ccc(CNCc2cn(-c3ccccc3)nc2-c2ccc3c(c2)OCCO3)cc1", "note": "[Compound 15, N-benzyl-1-(3-(2,3-dihydrobenzo[b][1,4]dioxin-6-yl)-1-phenyl-1H-pyrazol-4-yl)methanamine hydrochloride]", "values": [{"measurement": "EC50 at 3 days", "setting": "[1]; [6]", "value": 5.42, "unit": "µM"}]}, {"compound": "Fc1ccc(CNCc2cn(-c3ccccc3)nc2-c2ccc3c(c2)OCCO3)cc1", "note": "[Compound 16, 1-(3-(2,3-dihydrobenzo[b][1,4]dioxin-6-yl)-1-phenyl-1H-pyrazol-4-yl)-N-(4-fluorobenzyl)methanamine hydrochloride]", "values": [{"measurement": "EC50 at 3 days", "setting": "[1]; [6]", "value": 6.65, "unit": "µM"}]}, {"compound": "c1ccc(CCNCc2cn(-c3ccccc3)nc2-c2ccc3c(c2)OCCO3)cc1", "note": "[Compound 17, N-((3-(2,3-dihydrobenzo[b][1,4]dioxin-6-yl)-1-phenyl-1H-pyrazol-4-yl)methyl)-2-phenylethan-1-amine hydrochloride]", "values": [{"measurement": "EC50 at 3 days", "setting": "[1]; [6]", "value": 0.56, "unit": "µM"}]}, {"compound": "c1ccc(-n2cc(CNCCc3cccnc3)c(-c3ccc4c(c3)OCCO4)n2)cc1", "note": "[Compound 20, N-((3-(2,3-dihydrobenzo[b][1,4]dioxin-6-yl)-1-phenyl-1H-pyrazol-4-yl)methyl)-2-(pyridin-3-yl)ethan-1-amine hydrochloride]", "values": [{"measurement": "EC50 at 3 days", "setting": "[1]; [6]", "value": 8.95, "unit": "µM"}]}, {"compound": "c1ccc(-n2cc(CN3CCCC3)c(-c3ccc4c(c3)OCCO4)n2)cc1", "note": "[Compound 23, 3-(2,3-dihydrobenzo[b][1,4]dioxin-6-yl)-1-phenyl-4-(pyrrolidin-1-ylmethyl)-1H-pyrazole oxalate]", "values": [{"measurement": "EC50 at 3 days", "setting": "[1]; [6]", "value": 18.2, "unit": "µM"}]}, {"compound": "CN1CCN(Cc2cn(-c3ccccc3)nc2-c2ccc3c(c2)OCCO3)CC1", "note": "[Compound 24, 1-((3-(2,3-dihydrobenzo[b][1,4]dioxin-6-yl)-1-phenyl-1H-pyrazol-4-yl)methyl)-4-methylpiperazine]", "values": [{"measurement": "EC50 at 3 days", "setting": "[1]; [6]", "value": 18.2, "unit": "µM"}]}, {"compound": "CN1CCN(CCNCc2cn(-c3ccccc3)nc2-c2ccc3c(c2)OCCO3)CC1", "note": "[Compound 27, N-((3-(2,3-dihydrobenzo[b][1,4]dioxin-6-yl)-1-phenyl-1H-pyrazol-4-yl)methyl)-2-(4-methylpiperazin-1-yl)ethan-1-amine trihydrochloride]", "values": [{"measurement": "EC50 at 3 days", "setting": "[1]; [6]", "value": 6.94, "unit": "µM"}]}, {"compound": "O=C(Nc1ccccc1)c1cn(-c2ccccc2)nc1-c1ccc2c(c1)OCCO2", "note": "[Compound 30, 3-(2,3-dihydrobenzo[b][1,4]dioxin-6-yl)-N,1-diphenyl-1H-pyrazole-4-carboxamide]", "values": [{"measurement": "EC50 at 3 days", "setting": "[1]; [6]", "value": 9.19, "unit": "µM"}]}, {"compound": "O=C(NCCc1ccccc1)c1cn(-c2ccccc2)nc1-c1ccc2c(c1)OCCO2", "note": "[Compound 34, 3-(2,3-dihydrobenzo[b][1,4]dioxin-6-yl)-N-phenethyl-1-phenyl-1H-pyrazole-4-carboxamide]", "values": [{"measurement": "EC50", "setting": "[2]", "value": "> 64", "unit": "µM"}, {"measurement": "EC50", "setting": "[3]", "value": "> 64", "unit": "µM"}, {"measurement": "EC50", "setting": "[4]", "value": "> 64", "unit": "µM"}, {"measurement": "EC50 at 3 days", "setting": "[1]; [6]", "value": 1.54, "unit": "µM"}, {"measurement": "EC50", "setting": "[5]", "value": 4.74, "unit": "µM"}]}, {"compound": "O=C(NCCN1CCCC1)c1cn(-c2ccccc2)nc1-c1ccc2c(c1)OCCO2", "note": "[Compound 42, 3-(2,3-dihydrobenzo[b][1,4]dioxin-6-yl)-1-phenyl-N-(2-(pyrrolidin-1-yl)ethyl)-1H-pyrazole-4-carboxamide oxalate]", "values": [{"measurement": "EC50", "setting": "[2]", "value": 27.3, "unit": "µM"}, {"measurement": "EC50", "setting": "[3]", "value": 7.15, "unit": "µM"}, {"measurement": "EC50", "setting": "[4]", "value": 21.7, "unit": "µM"}, {"measurement": "EC50 at 3 days", "setting": "[1]; [6]", "value": 28, "unit": "µM"}, {"measurement": "EC50", "setting": "[5]", "value": 6.43, "unit": "µM"}]}, {"compound": "CN1CCN(CCNC(=O)c2cn(-c3ccccc3)nc2-c2ccc3c(c2)OCCO3)CC1", "note": "[Compound 43, 3-(2,3-dihydrobenzo[b][1,4]dioxin-6-yl)-N-(2-(4-methylpiperazin-1-yl)ethyl)-1-phenyl-1H-pyrazole-4-carboxamide]", "values": [{"measurement": "EC50 at 3 days", "setting": "[1]; [6]", "value": 19, "unit": "µM"}]}, {"compound": "Fc1ccc(Cc2cn(-c3ccccc3)nc2-c2ccc3c(c2)OCCO3)cc1", "note": "[Compound 51, 3-(2,3-dihydrobenzo[b][1,4]dioxin-6-yl)-4-(4-fluorobenzyl)-1-phenyl-1H-pyrazole]", "values": [{"measurement": "EC50 at 3 days", "setting": "[1]; [6]", "value": "> 64", "unit": "µM"}]}, {"compound": "Fc1ccc(CNCc2cn(-c3ccccc3)nc2-c2ccc3c(c2)OCO3)cc1", "note": "[Compound 55, 1-(3-(benzo[d] [1,3]dioxol-5-yl)-1-phenyl-1H-pyrazol-4-yl)-N-(4-fluorobenzyl)methanamine hydrochloride]", "values": [{"measurement": "EC50 at 3 days", "setting": "[1]; [6]", "value": 1, "unit": "µM"}]}, {"compound": "Fc1ccc(CCNCc2cn(-c3ccccc3)nc2-c2ccc3c(c2)OCO3)cc1", "note": "[Compound 56, N-((3-(benzo[d] [1,3]dioxol-5-yl)-1-phenyl-1H-pyrazol-4-yl)methyl)-2-(4-fluorophenyl)ethan-1-amine hydrochloride]", "values": [{"measurement": "EC50 at 3 days", "setting": "[1]", "value": 6.65, "unit": "µM"}]}, {"compound": "c1ccc(-n2cc(CNCCc3ccncc3)c(-c3ccc4c(c3)OCO4)n2)cc1", "note": "[Compound 57, N-((3-(benzo[d] [1,3]dioxol-5-yl)-1-phenyl-1H-pyrazol-4-yl)methyl)-2-(pyridin-4-yl)ethan-1-amine hydrochloride]", "values": [{"measurement": "EC50 at 3 days", "setting": "[1]; [6]", "value": 4, "unit": "µM"}]}, {"compound": "c1ccc(-n2cc(CNCCc3cccnc3)c(-c3ccc4c(c3)OCO4)n2)cc1", "note": "[Compound 58, N-((3-(benzo[d] [1,3]dioxol-5-yl)-1-phenyl-1H-pyrazol-4-yl)methyl)-2-(pyridin-3-yl)ethan-1-amine hydrochloride]", "values": [{"measurement": "EC50 at 3 days", "setting": "[1]; [6]", "value": 19.4, "unit": "µM"}]}, {"compound": "c1ccc(-n2cc(CNCCN3CCOCC3)c(-c3ccc4c(c3)OCO4)n2)cc1", "note": "[Compound 61, N-((3-(benzo[d] [1,3]dioxol-5-yl)-1-phenyl-1H-pyrazol-4-yl)methyl)-2-morpholinoethan-1-amine dihydrochloride]", "values": [{"measurement": "EC50 at 3 days", "setting": "[1]; [6]", "value": 17.1, "unit": "µM"}]}, {"compound": "COc1ccc(-c2nn(-c3ccccc3)cc2CNCCc2ccncc2)cc1", "note": "[Compound 62, N-((3-(4-methoxyphenyl)-1-phenyl-1H-pyrazol-4-yl)methyl)-2-(pyridin-4-yl)ethan-1-amine hydrochloride]", "values": [{"measurement": "EC50 at 3 days", "setting": "[1]; [6]", "value": 9.66, "unit": "µM"}]}, {"compound": "COc1ccc(-c2nn(-c3ccccc3)cc2CNCCc2cccnc2)cc1", "note": "[Compound 63, N-((3-(4-methoxyphenyl)-1-phenyl-1H-pyrazol-4-yl)methyl)-2-(pyridin-3-yl)ethan-1-amine hydrochloride]", "values": [{"measurement": "EC50 at 3 days", "setting": "[1]; [6]", "value": 16.4, "unit": "µM"}]}, {"compound": "COc1ccc(-c2nn(-c3ccccc3)cc2CNCCc2ccc(F)cc2)cc1OC", "note": "[Compound 67, N-((3-(3,4-dimethoxyphenyl)-1-phenyl-1H-pyrazol-4-yl)methyl)-2-(4-fluorophenyl)ethan-1-amine hydrochloride]", "values": [{"measurement": "EC50 at 3 days", "setting": "[1]; [6]", "value": 1.22, "unit": "µM"}]}]}
